# Where a SMILES comes first, the peptide text is derived from it. Bridges are numbered along the chain shown (N, C = ends). Roman numbers before positions name the chains, in order. [ ]: non-standard residue; d: D form. The star is where a group is joined. NαAmidinoTrp = N=C(N)N[C@@H](Cc1c[nH]c2ccccc12)C(=O)*; Pen = CC(C)(S)[C@H](N)C(=O)O; Tle = CC(C)(C)[C@H](N)C(=O)O; dNle = CCCC[C@@H](N)C(=O)O; dDab = NCC[C@@H](N)C(=O)O; Nle = CCCC[C@H](N)C(=O)O; Orn = NCCC[C@H](N)C(=O)O; Dab = NCC[C@H](N)C(=O)O; Dap = NC[C@H](N)C(=O)O; Sar = CNCC(=O)O
# Key:
# Format in all cases: cell-based
# [1] = tested on: human red blood cells (hRBC); experiment: Hemolysis of human red blood cells; details: red cells of human, 1 h
# Method: (§1) Lyophilized peptides were weighed on a Microbalance (Mettler MT5) and dissolved in sterile water to a final concentration of 1 mg/mL. Stock solutions were kept at +4° C., light protected.
# The peptides were tested for their hemolytic activity against human red blood cells (hRBC). Fresh hRBC were washed three times with phosphate buffered saline (PBS) and centrifuged for 10 min at 2000×g. Compounds (100 μg/mL) were incubated with 20% hRBC (v/v) for 1 h at 37° C. and shaking at 300 rpm. The final erythrocyte concentration was approximately 0.9×10^9 cells/mL. A value of 0% and 100% cell lyses, respectively, was determined by incubation of hRBC in the presence of PBS containing 0.001% acetic acid and 2.5% Triton X-100 in H2O, respectively. The samples were centrifuged, the supernatants were 8-fold diluted in PBS buffer and the optical densities (OD) were measured at 540 nm. The 100% lyses value (OD540H2O) gave an OD540 of approximately 0.5-1.0.
# Percent hemolysis was calculated as follows: (OD540peptide/OD540H2O)×100%.
# [2] = tested on: Acinetobacter baumannii DSM 30008; details: DSM 30008
# Method: as §1
# (§2) The in vitro antimicrobial activities of the peptides were determined in 96-well plates (Greiner, polystyrene) by the standard CLSI broth microdilution method (Clinical and Laboratory Standards Institute 2014. Performance standards for antimicrobial susceptibility testing, 24th informational supplement. Approved standard CLSI M100-S24; Clinical and Laboratory Standards Institute, Wayne, Pa.). Inocula of the microorganisms were diluted into Mueller-Hinton II (MH-cation adjusted) broth and compared with a 0.5 McFarland standard to give appr. 10^6 colony forming units (CFU)/mL. Aliquots (90 μL) of inoculate were added to 10 μL of MH-II broth+P-80 (Polysorbate 80, 0.002% final concentration, v/v) containing the peptide in serial two-fold dilutions. The following microorganisms were used to determine antibiotic activity of the peptides: Escherichia coli ATCC 25922, Klebsiella pneumoniae SSI #3010^a), Acinetobacter baumannii DSM 30008, Pseudomonas aeruginosa ATCC 27853 and the clinical isolates Escherichia coli 926415^b), Klebsiella pneumoniae 968733^b) and Acinetobacter baumannii 872842^b). Antimicrobial activities of the peptides were expressed as the minimal inhibitory concentration (MIC) in μg/mL at which no visible growth was observed after 18-20 hours of incubation at 35° C. ^a) Obtained from Statens Serum Institut (SSI), Copenhagen, Denmark^b) Obtained from International Health Management Associates, Inc. (IHMA Europe Sàrl), Epalinges, Switzerland
# [3] = tested on: Escherichia coli ATCC 25922; details: ATCC 25922
# Method: as §1, §2
# [4] = tested on: Pseudomonas aeruginosa ATCC 27853; details: ATCC 27853
# Method: as §1, §2
# [5] = tested on: Klebsiella pneumoniae SSI #3010; details: SSI #3010
# Method: as §1, §2
SMILES,Hemolysis at 100 μg/mL ([1]; 100 μg/mL),Acinetobacter baumannii DSM 30008 MIC [2],Escherichia coli ATCC 25922 MIC [3],Pseudomonas aeruginosa ATCC 27853 MIC [4],Klebsiella pneumoniae SSI #3010 MIC [5],Hemolysis at 100 μg/mL [1]; 100
CC(C)C[C@@H]1NC(=O)[C@@H](CC(C)C)NC(=O)[C@H](CCN)NC(=O)[C@@H](NC(=O)[C@@H](CCN)NC(=O)[C@@H]2CSSC[C@H](N)C(=O)N[C@@H](Cc3c[nH]c4ccccc34)C(=O)N[C@@H](CCN)C(=O)N[C@@H](C(C)(C)C)C(=O)N[C@@H](C)C(=O)N[C@@H](CO)C(=O)N3CCC[C@@H]3C(=O)N3CCC[C@H]3C(=O)N[C@@H](CC(C)C)C(=O)N[C@@H](CO)C(=O)N[C@@H](Cc3ccc(O)cc3)C(=O)N[C@@H](CCN)C(=O)N(C)CC(=O)N2)CCNC(=O)[C@H]([C@@H](C)O)NC(=O)[C@H](CCN)NC(=O)[C@H](CCN)NC1=O [Ex. 206] (H-CW[Dab][Tle]AS[dP]PLSY[Dab][Sar]C[dDab][Dab][Dab][dL]L[Dab][Dab]T; disulfide 1-14; lactam 16-C),1%,4 µg/mL,0.5 µg/mL,4 µg/mL,1 µg/mL,–
CC(C)C[C@@H]1NC(=O)[C@@H](CC(C)C)NC(=O)[C@H](CCN)NC(=O)[C@@H](NC(=O)[C@H](CCN)NC(=O)[C@@H](NC(=O)[C@H](CCN)NC(=O)CN(C)C(=O)[C@@H]2CSSC[C@H](NC(=O)[C@@H](N)Cc3c[nH]c4ccccc34)C(=O)N[C@@H](C(C)C)C(=O)N[C@@H](C)C(=O)N[C@@H](CO)C(=O)N3CCC[C@@H]3C(=O)N3CCC[C@H]3C(=O)N[C@@H](CC(C)C)C(=O)N[C@@H](CO)C(=O)N[C@@H](Cc3ccc(O)cc3)C(=O)N2)[C@@H](C)O)CCNC(=O)[C@@H](CCCNC(=N)N)NC(=O)[C@H](CCN)NC(=O)[C@H](CCN)NC1=O [Ex. 182] (H-WCVAS[dP]PLSYC[Sar][Dab]T[Dab][Dab][Dab][dL]L[Dab][Dab][dR]; disulfide 2-11; lactam 16-C),1%,0.75 µg/mL,0.5 µg/mL,4 µg/mL,0.5 µg/mL,–
CCCC[C@@H]1NC(=O)[C@@H]2CCCN2C(=O)[C@H]2CCCN2C(=O)[C@H](CO)NC(=O)[C@H](C)NC(=O)[C@H](C(C)(C)C)NC(=O)[C@H](CCC(=O)N[C@@H](CCN)C(=O)N[C@H](C(=O)N[C@@H](CCN)C(=O)N[C@H]2CCNC(=O)[C@H]([C@@H](C)O)NC(=O)[C@H](CCN)NC(=O)[C@H](CCN)NC(=O)[C@H](CC(C)C)NC(=O)[C@@H](Cc3ccccc3)NC(=O)[C@H](CCN)NC2=O)[C@@H](C)O)NC(=O)[C@H](Cc2c[nH]c3ccccc23)NC(=O)[C@H](CCN)NC(=O)[C@@H](CCN)NC(=O)[C@H](CCCN)NC(=O)[C@H](CCN)NC(=O)[C@H](Cc2ccc(O)cc2)NC(=O)[C@H](CO)NC1=O [Ex. 11] (I: cyclo(WE[Tle]AS[dP]P[Nle]SY[Dab][Orn][dDab][Dab]) / II: [Dab]T[Dab][Dab][Dab][dF]L[Dab][Dab]T; amide I:2-II:N; lactam II:4-II:C),–,1 µg/mL,2 µg/mL,0.5 µg/mL,1 µg/mL,1%
CCCC[C@@H]1NC(=O)[C@@H]2CCCN2C(=O)[C@H]2CCCN2C(=O)[C@H](CO)NC(=O)[C@H](C)NC(=O)[C@H](C(C)(C)C)NC(=O)[C@@H](NC(=O)[C@H](Cc2c[nH]c3ccccc23)NC(C)=O)CSSC[C@@H](C(=O)N[C@@H](CNC(=O)[C@@H](N)CCC(=O)O)C(=O)N[C@H](C(=O)N[C@@H](CCN)C(=O)N[C@H]2CCNC(=O)[C@H]([C@@H](C)O)NC(=O)[C@H](CCN)NC(=O)[C@H](CCN)NC(=O)[C@H](CC(C)C)NC(=O)[C@@H](Cc3ccccc3)NC(=O)[C@H](CCN)NC2=O)[C@@H](C)O)NC(=O)[C@H](Cc2ccc(O)cc2)NC(=O)[C@H](CO)NC1=O [Ex. 24] (Ac-WC[Tle]AS[dP]P[Nle]SYC[Dap](Glu)T[Dab][Dab][Dab][dF]L[Dab][Dab]T; disulfide 2-11; lactam 15-C),1%,2 µg/mL,2 µg/mL,4 µg/mL,4 µg/mL,–
CCCC[C@@H]1NC(=O)[C@@H]2CCCN2C(=O)[C@H]2CCCN2C(=O)[C@H](CO)NC(=O)[C@H](C)NC(=O)[C@H](C(C)(C)C)NC(=O)[C@@H](NC(=O)[C@@H](N)Cc2c[nH]c3ccccc23)CSSC[C@@H](C(=O)N[C@@H](CCCN)C(=O)N[C@@H](CCN)C(=O)N[C@H]2CCNC(=O)[C@H]([C@@H](C)O)NC(=O)[C@H](CCN)NC(=O)[C@H](CCN)NC(=O)[C@H](CC(C)C)NC(=O)[C@@H](CCCC)NC(=O)[C@H](CCN)NC2=O)NC(=O)[C@H](Cc2ccc(O)cc2)NC(=O)[C@H](CO)NC1=O [Ex. 192] (H-WC[Tle]AS[dP]P[Nle]SYC[Orn][Dab][Dab][Dab][dNle]L[Dab][Dab]T; disulfide 2-11; lactam 14-C),5%,0.25 µg/mL,0.25 µg/mL,2 µg/mL,0.25 µg/mL,–
CC(C)C[C@@H]1NC(=O)[C@@H](CC(C)C)NC(=O)[C@H](CCN)NC(=O)[C@@H](NC(=O)[C@H](CCN)NC(=O)[C@@H](NC(=O)[C@H](CCN)NC(=O)CNC(=O)[C@H]2NC(=O)[C@H](Cc3ccc(O)cc3)NC(=O)[C@H](CO)NC(=O)[C@H](CC(C)C)NC(=O)[C@@H]3CCCN3C(=O)[C@H]3CCCN3C(=O)[C@H](CO)NC(=O)[C@H](C)NC(=O)[C@H](C(C)C)NC(=O)[C@@H](NC(=O)[C@H](Cc3c[nH]c4ccccc34)NC(=N)N)C(C)(C)SSC2(C)C)[C@@H](C)O)CCNC(=O)[C@H]([C@@H](C)O)NC(=O)[C@H](CCN)NC(=O)[C@H](CCN)NC1=O [Ex. 174] (NαAmidinoTrp-[Pen]VAS[dP]PLSY[Pen]G[Dab]T[Dab][Dab][Dab][dL]L[Dab][Dab]T; disulfide 1-10; lactam 15-C),1%,0.5 µg/mL,0.25 µg/mL,2 µg/mL,0.5 µg/mL,–
CC(C)C[C@@H]1NC(=O)[C@H](CCN)NC(=O)[C@@H](CCN)NC(=O)[C@H](CO)NC(=O)[C@@H](NC(=O)[C@@H](NC(=O)[C@H](CCN)NC(=O)[C@@H](N)Cc2c[nH]c3ccccc23)C(C)C)CSSC[C@@H](C(=O)N[C@@H](Cc2ccc(O)cc2)C(=O)N[C@@H](CCN)C(=O)NCC(=O)N[C@@H](CCN)C(=O)N[C@H](C(=O)N[C@@H](CCN)C(=O)N[C@H]2CCNC(=O)[C@H]([C@@H](C)O)NC(=O)[C@H](CCN)NC(=O)[C@H](CCN)NC(=O)[C@H](CC(C)C)NC(=O)[C@@H](CC(C)C)NC(=O)[C@H](CCN)NC2=O)[C@@H](C)O)NC1=O [Ex. 163] (H-W[Dab]VCS[dDab][Dab]LCY[Dab]G[Dab]T[Dab][Dab][Dab][dL]L[Dab][Dab]T; disulfide 4-9; lactam 16-C),<1%,1 µg/mL,2 µg/mL,2 µg/mL,2 µg/mL,–
"CCCC[C@@H]1NC(=O)[C@@H]2CCCN2C(=O)[C@H]2CCCN2C(=O)[C@H](CO)NC(=O)[C@H](C)NC(=O)[C@H](C(C)(C)C)NC(=O)[C@@H](NC(=O)[C@H](Cc2c[nH]c3ccccc23)NC(C)=O)CC(=O)NCC[C@@H](C(=O)N[C@@H](CCCN)C(=O)N[C@@H](CCN)C(=O)N[C@H]2CCNC(=O)[C@H]([C@@H](C)O)NC(=O)[C@H](CCN)NC(=O)[C@H](CCN)NC(=O)[C@H](CC(C)C)NC(=O)[C@@H](Cc3ccccc3)NC(=O)[C@H](CCN)NC2=O)NC(=O)[C@H](Cc2ccc(O)cc2)NC(=O)[C@H](CO)NC1=O [Ex. 56] (Ac-WD[Tle]AS[dP]P[Nle]SY[Dab][Orn][Dab][Dab][Dab][dF]L[Dab][Dab]T; lactam 2-11, 14-C)",–,2 µg/mL,0.5 µg/mL,4 µg/mL,4 µg/mL,<1%

# — patent US10829520B2, “Beta-hairpin peptidomimetics” (POLYPHOR AG, priority 2015, dated 2020)
